Test results published in the supplement of paper PMC10307832.

Tests used:
Experiment in all cases: relative viability (nuclei count vs DMSO), 5 days (fraction); higher = more cells survive
[1] = compound: COC1=CC(c2cc3ccccc3[nH]2)=N/C1=C\c1[nH]c(C)cc1C [Obatoclax] + O=C(CCCCCCC(=O)Nc1ccccc1)NO [Vorinostat] (partner 1 µM)
How it was run: (§1)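 Dosing by pin tool came one day after lung cancer cell lines were seeded in 1536-well plates, using either one drug or a fixed anchor-drug dose plus five library-drug doses (not always all listed) in √10 steps. After 5 days, nuclei were counted on 4× images. Relative viability is treated-well nuclei count divided by vehicle-well nuclei count, and values are medians of duplicate plates.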

[2] = compound: CC1=CC(=NN1)NC2=CC(=NC(=N2)/C=C/C3=CC=CC=C3)N4CCN(CC4)C + C[C@]1(O)C[C@@H](c2nc(-c3ccc4ccc(-c5ccccc5)nc4c3)c3c(N)nccn32)C1 [Linsitinib] (partner 1 µM)
How it was run: as §1

[3] = compound: CC1=CC(=NN1)NC2=CC(=NC(=N2)/C=C/C3=CC=CC=C3)N4CCN(CC4)C + Cc1nc(NC(=O)N2CCC[C@H]2C(N)=O)sc1-c1ccnc(C(C)(C)C(F)(F)F)c1 [Alpelisib] (partner 2 µM)
How it was run: as §1

[4] = compound: COC1=CC(c2cc3ccccc3[nH]2)=N/C1=C\c1[nH]c(C)cc1C [Obatoclax] + CC1(C)CCC(c2ccc(Cl)cc2)=C(CN2CCN(c3ccc(C(=O)NS(=O)(=O)c4ccc(N[C@H](CCN5CCOCC5)CSc5ccccc5)c(S(=O)(=O)C(F)(F)F)c4)cc3)CC2)C1 [Navitoclax] (partner 0.5 µM)
How it was run: as §1

Cell Line	relative viability ([1]; first compound 0.01 µM)	relative viability ([1]; first compound 0.03162 µM)	relative viability ([1]; first compound 0.1 µM)	relative viability ([1]; first compound 0.3162 µM)	relative viability ([1]; first compound 1 µM)	relative viability ([2]; first compound 0.08 µM)	relative viability ([2]; first compound 0.253 µM)	relative viability ([2]; first compound 0.8 µM)	relative viability ([2]; first compound 2.53 µM)	relative viability ([2]; first compound 8 µM)	relative viability ([3]; first compound 0.08 µM)	relative viability ([3]; first compound 0.253 µM)	relative viability ([3]; first compound 0.8 µM)	relative viability ([3]; first compound 2.53 µM)	relative viability ([3]; first compound 8 µM)	relative viability ([4]; first compound 0.01 µM)	relative viability ([4]; first compound 0.03162 µM)	relative viability ([4]; first compound 0.3162 µM)	relative viability ([4]; first compound 1 µM)	relative viability ([4]; first compound 0.1 µM)
NCI-H661	0.734	0.789	0.81	0.711	0.552	0.618	0.579	0.663	0.44	0.182	0.578	0.749	0.94	0.455	0.197					
ChaGo-K-1	0.756	0.587	0.637	0.742	0.795											0.956	0.669	0.955	1.32	
NCI-H2170	0.698	0.88	0.742	0.799	0.782						0.765	0.861	0.668	0.494	0.147	0.618	0.554	0.609	0.577	0.606
NCI-H1703						0.67	0.466	1.06	0.148	0.0677	0.302	0.32	0.205	0.128	0.0994	1.27	1.34	0.385	0.292	0.955
NCI-H1650	0.494	0.661	0.61	0.417	0.301											1.03	1.08	0.986	0.239	1.18
NCI-H522	0.891	0.794	0.793	0.967	0.973															
LCLC-103H	0.791	0.676	0.715	0.756	0.799	1.16	1.09	1.13	1.12	0.809	0.917	1.01	1.07	0.804	0.441					
NCI-H1563						1.23	1.34	1.18	0.718	0.514	0.896	0.893	0.782	0.555	0.392					
NCI-H1792						0.58	0.56	0.513	0.316	0.112	0.648	0.8	0.726	0.475	0.213	0.647	0.586	0.626	0.561	
NCI-H2342	0.767	0.717	0.859	0.874	0.958															
EBC-1						0.852	0.874	0.923	0.71	0.317	0.83	0.87	0.788	0.183	0.128	0.449	0.379	0.16	0.177	0.395
NCI-H1648	0.557	0.479	0.739	0.357	0.822															
NCI-H1299						0.986	0.967	1.03	0.754	0.295	1.06	1.08	1.04	1.1	0.605	1.04	1.07	1.07	0.997	1.04
